Ends that are not written are not given here.
Assays:
pig coronary artery = experiment: Endothelium dependent relaxation of pig coronary artery pre-contracted with KCl; conditions: pig coronary artery precontracted with KCl, FIG. 3
[1] = biological target: T1, erythrocyte leaky ghost Ca^2+—Mg^2+-ATPase (PM Ca^2+ pump) (Homo sapiens, UniProt P23634); experiment: Ca2+-Mg2+-ATPase assay with human erythrocyte leaky ghosts (fluorometric coupled enzyme assay); format: biochemical
T1 construct: Human erythrocyte leaky ghosts (Jarrett et al. (1978)) were assayed for ATPase; from tissue; host or cells: human erythrocyte leaky ghosts prepared from human blood
Protocol: FIG. 1A is a graph showing Ca^2+—Mg^2+-ATPhase inhibition by caloxin 2A1. Human erythrocyte leaky ghosts (Jarrett et al. (1978)) were assayed for ATPase as described previously (Niggli et al. (1981); Grover (1988)) but by fluorometry. The drawn curve is from a total of 32 data points. Error bars where shown are SEM values.
The present invention includes all caloxins isolated according to the method of the invention. Caloxins can be tested for their ability to inhibit the plasma membrane Ca^2+-pump using various assays. In particular, PM Ca^2+ pump is a Ca^2+—Mg^2+-ATPase that binds ATP in presence of Ca^2+ to form an acylphosphate which is then hydrolysed upon Ca^2+ translocation (Guerini (1998)). The effect of caloxins on PM Ca^2+ pump can be tested in two assays using human erythrocyte leaky ghosts: Ca^2+—Mg^2+-ATPase and acylphosphate formation. In particular the inventors have shown that caloxin 2A-1 inhibits erythrocyte leaky ghost Ca^2+—Mg^2+-ATPase (FIG. 1A) producing 50% inhibition at 0.4±0.1 mM. Caloxin 2A-1 inhibits the PM Ca^2+-pump selectively. At a concentration of 0.9 mM, caloxin 2A1 inhibits the erythrocyte ghost Ca^2+—Mg^2+-ATPase by 78±4% but with no effect on Mg^2+-ATPase or Na^+—K^+-ATPase in the ghosts or the Ca^2+—Mg^2+-ATPase in skeletal muscle sarcoplasmic reticulum (FIG. 1B). The inhibition is selective to caloxin 2A1 because 0.9 mM of a peptide with randomized caloxin 2A1 sequence (SWSSFPGSGGVSNPN-amide, SEQ.ID.NO.5) has no effect (FIG. 1B) neither does the large mixture of peptides contained in the casein pancreatic hydrolysate (data not shown). Thus, caloxin 2A1 is selective in that it inhibits the PM Ca^2+-pump and not other ATPases. […] Caloxin 2A1 was selected by binding to a PMCA1 sequence but it inhibits PM Ca^2+-pump in erythrocyte ghosts which express mainly PMCA4. This finding is consistent with the high degree of similarity between sequences of PMCA genes in this domain (Swiss Protein Bank accession numbers P20020, Q01814, Q16720, P23634) although we have not ruled out that caloxin 2A1 has different affinities for each isoform. The second PM Ca^2+-pump assay consisted of Ca^2+-dependent formation of the acid stable 140 kDa acylphosphate intermediate from ^32P-γ-ATP in erythrocyte leaky ghosts.
1.2. Ca^2+—Mg^2+-ATPase assay with human erythrocyte leaky ghosts: A major hurdle was the lack of an appropriate assay. The difficulties were: (a) calmodulin needed for the PM Ca^2+ pump activity binds on the cytosolic surface of the pump protein and caloxins by definition bind on the outside surface, (b) most tissues have very active ecto-Mg^2+-ATPase and an ER Ca^2+—Mg^2+-ATPase—the latter can be inhibited by thapsigargin but the former poses a major problem. Erythrocyte ghosts contain mostly plasma membrane. Finally we used human erythrocyte ghosts which have low ecto-Mg^2+-ATPase. Fluorometric coupled enzyme assays are more sensitive. We purchased microcuvettes (100–150 μl) for our fluorometer (SPEX Fluorolog 112) with a heated chamber (37° C.) and made the appropriate cuvette adapter. We first monitor basal Mg^2+-ATPhase as slope for the disappearance of NADH fluorescence (ex=340, em=440 nm) in a solution containing 0.2–0.4 mg ghost protein, 0.1 mM ouabain, 100 mM NaCl, 20 mM KCl, 6 mM MgCl2, 30 mM imidazole-HCl pH 7.0, 0.5 mM EDTA, 0.6 mM NADH, 1 mM pyruvate enol phosphate, excess pyruvate kinase-[…], 0.5 mM ATP, 0.5 mM EGTA and 4 ug/ml calmodulin. […] Na^+—K^+-ATPase can be monitored without CaCl2 and ouabain.

[2] = biological target: T2, PM Ca^2+-pump 140 kDa acylphosphate intermediate (Homo sapiens, UniProt P23634); experiment: Ca2+-dependent acylphosphate formation from 32P-gamma-ATP in erythrocyte leaky ghosts; format: biochemical; conditions: 3.4 mM peptide, FIG. 1C
T2 construct: from tissue; host or cells: human erythrocyte leaky ghosts
T2 sequence (P23634 1-1205 isoform P23634-6): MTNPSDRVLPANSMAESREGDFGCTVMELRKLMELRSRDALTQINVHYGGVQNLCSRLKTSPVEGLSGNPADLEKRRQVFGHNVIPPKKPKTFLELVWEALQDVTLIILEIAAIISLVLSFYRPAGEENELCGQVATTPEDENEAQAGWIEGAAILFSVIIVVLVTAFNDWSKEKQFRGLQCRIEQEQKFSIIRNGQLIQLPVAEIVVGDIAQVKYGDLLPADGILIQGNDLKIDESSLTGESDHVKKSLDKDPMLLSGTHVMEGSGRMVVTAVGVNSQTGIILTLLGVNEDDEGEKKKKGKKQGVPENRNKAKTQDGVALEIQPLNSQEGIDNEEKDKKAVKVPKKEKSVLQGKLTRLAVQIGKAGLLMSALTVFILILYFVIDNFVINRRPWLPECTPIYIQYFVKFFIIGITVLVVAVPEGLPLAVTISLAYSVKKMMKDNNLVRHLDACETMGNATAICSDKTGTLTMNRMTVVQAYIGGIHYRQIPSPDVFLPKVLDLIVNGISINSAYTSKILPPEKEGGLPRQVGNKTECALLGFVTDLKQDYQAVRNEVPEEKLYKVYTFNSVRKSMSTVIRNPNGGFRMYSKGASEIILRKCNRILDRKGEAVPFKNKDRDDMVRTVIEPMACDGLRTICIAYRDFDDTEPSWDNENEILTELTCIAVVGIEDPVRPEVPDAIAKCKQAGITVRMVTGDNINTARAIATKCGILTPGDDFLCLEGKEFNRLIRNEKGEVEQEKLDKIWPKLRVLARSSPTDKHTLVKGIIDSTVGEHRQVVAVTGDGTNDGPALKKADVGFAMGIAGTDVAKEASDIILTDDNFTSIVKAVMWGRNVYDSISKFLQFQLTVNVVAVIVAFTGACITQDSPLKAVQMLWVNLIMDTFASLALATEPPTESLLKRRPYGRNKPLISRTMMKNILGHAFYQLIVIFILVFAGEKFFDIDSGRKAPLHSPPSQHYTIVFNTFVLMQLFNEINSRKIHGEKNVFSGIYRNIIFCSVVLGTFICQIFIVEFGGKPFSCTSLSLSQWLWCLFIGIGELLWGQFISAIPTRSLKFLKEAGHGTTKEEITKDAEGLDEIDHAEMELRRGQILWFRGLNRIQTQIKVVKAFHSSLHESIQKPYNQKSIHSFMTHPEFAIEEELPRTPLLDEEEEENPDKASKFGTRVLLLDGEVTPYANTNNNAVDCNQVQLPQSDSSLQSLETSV
Protocol: FIG. 1C is gel showing acylphosphate formation with 3.4 mM caloxin 2A1 or a random peptide. The acylphosphate reaction was carried out and samples analyzed by acid gel electrophoresis as previously described (Grover et al. (1988); Wuytack et al. (1984)). EGTA=1 mM, and CaCl2=0.05 mM.
(§1) The present invention includes all caloxins isolated according to the method of the invention. Caloxins can be tested for their ability to inhibit the plasma membrane Ca^2+-pump using various assays. In particular, PM Ca^2+ pump is a Ca^2+—Mg^2+-ATPase that binds ATP in presence of Ca^2+ to form an acylphosphate which is then hydrolysed upon Ca^2+ translocation (Guerini (1998)). The effect of caloxins on PM Ca^2+ pump can be tested in two assays using human erythrocyte leaky ghosts: Ca^2+—Mg^2+-ATPase and acylphosphate formation. In particular the inventors have shown that caloxin 2A-1 inhibits erythrocyte leaky ghost Ca^2+—Mg^2+-ATPase (FIG. 1A) producing 50% inhibition at 0.4±0.1 mM. Caloxin 2A-1 inhibits the PM Ca^2+-pump selectively. At a concentration of 0.9 mM, caloxin 2A1 inhibits the erythrocyte ghost Ca^2+—Mg^2+-ATPase by 78±4% but with no effect on Mg^2+-ATPase or Na^+—K^+-ATPase in the ghosts or the Ca^2+—Mg^2+-ATPase in skeletal muscle sarcoplasmic reticulum (FIG. 1B). […]

[3] = test system: Mg^2+-ATPase in the ghosts; experiment: Mg2+-ATPase in erythrocyte ghosts; format: biochemical, human; conditions: 0.9 mM
Excerpt: (§2) FIG. 1B is a bar graph showing the selectivity of caloxin 2A1 for inhibition of PM Ca^2+—Mg^2+-ATPase using caloxin 2A1 or a random peptide (RP). G=ghosts and S=skeletal muscle sarcoplasmic reticulum, Type of ATPhase activity monitored is shown as Ca^2+—Mg^2+, Mg^2+ or Na^+—K^+-ATPase.
(§3) The present invention includes all caloxins isolated according to the method of the invention. Caloxins can be tested for their ability to inhibit the plasma membrane Ca^2+-pump using various assays. In particular, PM Ca^2+ pump is a Ca^2+—Mg^2+-ATPase that binds ATP in presence of Ca^2+ to form an acylphosphate which is then hydrolysed upon Ca^2+ translocation (Guerini (1998)). The effect of caloxins on PM Ca^2+ pump can be tested in two assays using human erythrocyte leaky ghosts: Ca^2+—Mg^2+-ATPase and acylphosphate formation. […]
(§4) 1.2. […] We first monitor basal Mg^2+-ATPhase as slope for the disappearance of NADH fluorescence (ex=340, em=440 nm) in a solution containing 0.2–0.4 mg ghost protein, 0.1 mM ouabain, 100 mM NaCl, 20 mM KCl, 6 mM MgCl2, 30 mM imidazole-HCl pH 7.0, 0.5 mM EDTA, 0.6 mM NADH, 1 mM pyruvate enol phosphate, excess pyruvate kinase-[…], 0.5 mM ATP, 0.5 mM EGTA and 4 ug/ml calmodulin. […] Na^+—K^+-ATPase can be monitored without CaCl2 and ouabain.

PMCA4 = biological target: T3, PMCA4 (Homo sapiens, UniProt P23634); experiment: Ca2+-Mg2+-ATPase activity in microsomes of COS-M6 cells transfected with PMCA4; format: biochemical; conditions: read-out: inhibition of PMCA4 Ca^2+—Mg^2+-ATPase
T3 construct: expressed in transfected cells; host or cells: COS-M6 cells, microsomes
T3 sequence (P23634 1-1241): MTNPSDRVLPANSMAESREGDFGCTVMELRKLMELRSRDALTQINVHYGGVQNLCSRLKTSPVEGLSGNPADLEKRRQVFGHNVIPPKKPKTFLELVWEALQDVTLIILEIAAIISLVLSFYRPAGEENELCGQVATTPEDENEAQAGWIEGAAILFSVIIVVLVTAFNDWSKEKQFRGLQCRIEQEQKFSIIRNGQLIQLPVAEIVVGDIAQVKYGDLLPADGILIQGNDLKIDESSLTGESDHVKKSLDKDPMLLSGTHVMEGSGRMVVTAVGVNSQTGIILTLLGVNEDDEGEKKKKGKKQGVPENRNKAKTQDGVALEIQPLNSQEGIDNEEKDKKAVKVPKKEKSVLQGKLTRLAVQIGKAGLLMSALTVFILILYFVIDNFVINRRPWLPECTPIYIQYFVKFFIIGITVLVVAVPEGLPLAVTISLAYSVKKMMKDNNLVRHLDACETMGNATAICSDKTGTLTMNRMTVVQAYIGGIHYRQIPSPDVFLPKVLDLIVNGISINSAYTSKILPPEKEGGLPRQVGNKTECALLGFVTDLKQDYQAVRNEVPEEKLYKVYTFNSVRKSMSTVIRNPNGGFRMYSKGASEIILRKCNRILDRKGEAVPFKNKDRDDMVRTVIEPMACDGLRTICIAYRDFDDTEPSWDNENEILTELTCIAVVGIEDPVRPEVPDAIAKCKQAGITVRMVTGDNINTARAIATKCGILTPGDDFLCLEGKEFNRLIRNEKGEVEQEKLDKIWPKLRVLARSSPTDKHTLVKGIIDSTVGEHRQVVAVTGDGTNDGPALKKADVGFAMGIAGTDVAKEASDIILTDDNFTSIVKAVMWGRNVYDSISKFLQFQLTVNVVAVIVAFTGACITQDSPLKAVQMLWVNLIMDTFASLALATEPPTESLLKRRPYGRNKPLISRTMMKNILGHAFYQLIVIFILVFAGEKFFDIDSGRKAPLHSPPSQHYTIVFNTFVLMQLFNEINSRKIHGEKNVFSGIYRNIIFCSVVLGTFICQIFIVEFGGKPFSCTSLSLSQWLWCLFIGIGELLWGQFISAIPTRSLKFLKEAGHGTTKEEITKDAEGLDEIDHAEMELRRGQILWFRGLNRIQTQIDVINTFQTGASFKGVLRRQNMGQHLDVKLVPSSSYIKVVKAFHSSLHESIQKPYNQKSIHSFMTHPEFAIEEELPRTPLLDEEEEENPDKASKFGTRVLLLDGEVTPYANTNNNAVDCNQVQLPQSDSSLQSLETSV
Excerpt: (§5) PM Ca^2+-pump isoforms are encoded by 4 different genes. The inventors determined the effects of caloxin 2A1 on different isoforms. Cos M6 cells were transfected with this DNA using Fugene (purchased from Roche). Microsomes from SF9 cells expressing PMCA2 were a gift from Dr. A. Filoteo.
(§6) PMCA4 plasmid was transfected into COS-M6 cells. Thirty six to 48 hr later, microsomes were made from these cells and overexpression of the protein was confirmed using Western Blot. The Ca^2+—Mg^2+-ATPase activity in the microsomes was determined. The assay solutions included the following additional reagents: 0.05% Triton X-100, 5 mM sodium azide and 10 uM cyclopiazonic acid. Results: In a total of 22 determinations, the inhibition produced by 0.46,0.94 and 1.87 mM caloxin 2A1 on PMCA4 was 29, 47 and 58%, respectively.

[4] = test system: Na^+—K^+-ATPase in the ghosts; experiment: Na+-K+-ATPase in erythrocyte ghosts; format: biochemical, human; conditions: 0.9 mM
Excerpt: as §2, §3, §4

rat aortic rings = experiment: Endothelium dependent relaxation of rat aorta rings precontracted with phenylephrine; conditions: precontracted with 0.5 μM phenylephrine, 0.34 mM caloxin 2A1, reversed by L-NAME
Protocol: Rat aorta rings were hung in organ bath as previously described. The rings were contracted with submaximum (0.5 μM) phenylephrine before adding 0.34 mM caloxin 2A1 and 0.1 mM L-nitroarginylmethyl ester) as shown. Each experiment was replicated at least four times.
Inhibiting the PM Ca^2+ pump in vascular endothelium should increase cytosolic Ca^2+, thereby activating endothelial nitric oxide synthase to relax arteries (Rees et al. (1990); Sato et al. (1990)). […] Thus caloxin 2A1 produced the biological effect in the endothelium which was expected from its inhibiting PM Ca^2+-pump.
1.3. […] We anesthetized a rats by methoxyfluorane (Metofane) inhalation and removed its thoracic aorta as 3 mm rings. These tissues relax to 1 μM carbachol after they have been contracted with phenylephrine (0.5 to 2 μM). We initially tried to do these experiments in Na^+-free solution but the tissues gave very poor contractions to phenylephrine. In Na^+-free solution, the tissues contracted to 20–80 mM KCl but relaxation with carbachol was poor. We reverted to using phenylephrine but in Na^+-containing Krebs' solution.

PMCA2b = experiment: Ca2+-Mg2+-ATPase activity in microsomes from SF9 cells expressing PMCA2; format: biochemical; conditions: 1.87 mM; two experiments
Excerpt: as §5, §6

[5] = test system: T4, Ca^2+—Mg^2+-ATPase in skeletal muscle sarcoplasmic reticulum; experiment: Ca2+-Mg2+-ATPase in skeletal muscle sarcoplasmic reticulum; format: biochemical; conditions: 0.9 mM
T4 construct: G=ghosts and S=skeletal muscle sarcoplasmic reticulum; from tissue; host or cells: skeletal muscle sarcoplasmic reticulum
T4 sequence (O14983 whole entry): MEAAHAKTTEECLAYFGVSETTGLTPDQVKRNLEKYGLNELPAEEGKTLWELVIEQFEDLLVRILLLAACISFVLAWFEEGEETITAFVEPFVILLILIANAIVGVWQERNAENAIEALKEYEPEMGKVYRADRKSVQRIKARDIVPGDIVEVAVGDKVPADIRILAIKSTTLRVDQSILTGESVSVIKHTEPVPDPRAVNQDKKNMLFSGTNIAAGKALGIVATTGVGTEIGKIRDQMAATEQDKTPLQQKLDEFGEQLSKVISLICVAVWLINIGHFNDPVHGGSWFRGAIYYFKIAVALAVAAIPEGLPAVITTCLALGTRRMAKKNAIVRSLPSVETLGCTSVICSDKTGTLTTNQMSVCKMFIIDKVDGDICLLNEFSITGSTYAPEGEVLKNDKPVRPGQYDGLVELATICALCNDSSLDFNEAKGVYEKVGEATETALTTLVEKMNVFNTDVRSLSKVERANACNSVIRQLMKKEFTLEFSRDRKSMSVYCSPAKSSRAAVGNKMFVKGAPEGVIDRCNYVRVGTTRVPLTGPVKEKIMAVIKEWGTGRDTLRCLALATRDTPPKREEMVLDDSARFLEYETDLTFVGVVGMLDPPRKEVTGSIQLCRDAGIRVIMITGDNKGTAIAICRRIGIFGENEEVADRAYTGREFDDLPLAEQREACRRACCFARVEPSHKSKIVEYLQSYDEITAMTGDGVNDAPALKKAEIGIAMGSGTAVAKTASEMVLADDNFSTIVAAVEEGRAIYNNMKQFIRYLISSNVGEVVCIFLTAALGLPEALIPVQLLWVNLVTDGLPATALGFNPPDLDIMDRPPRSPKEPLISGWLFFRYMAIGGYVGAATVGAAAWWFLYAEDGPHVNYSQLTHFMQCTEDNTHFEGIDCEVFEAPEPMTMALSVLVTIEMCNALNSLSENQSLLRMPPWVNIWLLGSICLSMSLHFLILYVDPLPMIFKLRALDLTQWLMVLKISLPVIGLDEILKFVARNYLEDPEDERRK
Excerpt: as §2, §1

Row | Substance | endothelium dependent relaxation of coronary arteries (pig coronary artery) | endothelium dependent relaxation of coronary arteries (pig coronary artery; listed as Caloxin 3A1) | effect on erythrocyte ghost Ca^2+—Mg^2+-ATPase (in words) ([1]; concentration not given) | inhibition of acylphosphate formation [2] | effect on erythrocyte ghost Ca^2+—Mg^2+-ATPase (in words) ([1]; 0.9 mM peptide, FIG. 1B) | effect on Mg^2+-ATPase in the ghosts [3] | inhibition at 460 µM (PMCA4; 0.46 mM) [%] | inhibition at 940 µM (PMCA4; 0.94 mM) [%] | inhibition at 1870 µM (PMCA4; 1.87 mM) [%] | effect on Na^+—K^+-ATPase in the ghosts [4] | relaxation of rat aortic rings (rat aortic rings) | relaxation of rat aortic rings (rat aortic rings; listed as Caloxin 2A1) | average inhibition of PMCA2b (PMCA2b) [%] | effect on Ca^2+—Mg^2+-ATPase in skeletal muscle sarcoplasmic reticulum [5] | inhibition of erythrocyte ghost Ca^2+—Mg^2+-ATPase ([1]; 0.9 mM peptide) [%] | IC50 ([1]; human erythrocyte leaky ghosts, read-out: concentration producing 50% inhibition of erythrocyte leaky ghost Ca^2+—Mg^2+-ATPase) [µM]
1 | Acetyl-DSHINNEPSRRRGGGK (Ac-DSHINNEPSRRRGGGK; listed as Homo sapiens) [caloxin 3A1, peptide isolated by phage display screening against PMCA874] | endothelium dependent relaxation | produces an endothelium dependent relaxation | inhibits | – | – | – | – | – | – | – | – | – | – | – | – | –
2 | SWSSFPGSGGVSNPN-amide (SWSSFPGSGGVSNPN-NH2; listed as Homo sapiens) [randomized peptide, reference compound] | – | – | – | does not | no effect | – | – | – | – | – | – | – | – | – | – | –
3 | VSNSNWPSFPSSGGG-NH2 [caloxin 2A1, VSNSNWPSFPSSGGG-amide] | – | – | – | inhibits the acylphosphate formation | significant (p<0.05) inhibition | no effect | 29 | 47 | 58 | no effect | produced a relaxation | relaxed the aortic rings | 46 | no effect | 78±4 | 400 ± 100

Source: patent US7091174B2, “Caloxins” (McMaster University, priority 2000, dated 2006)
